# Measurements: US6545009B1, “Retinoid-related receptor function regulating agent” (Takeda Chemical Industries, Ltd., priority 1998, dated 2003)
row,SMILES,melting point [°C]
1,"O=C(O)c1ccc(-c2nc(-c3ccccc3C(F)(F)F)cs2)cc1 [Example 60, 4-[4-(2-trifluoromethylphenyl)-2-thiazolyl]benzoic acid]",225 to 227
2,"O=C(O)c1ccc(-c2nc(-c3ccccn3)cs2)cc1 [Example 61, 4-[4-(2-pyridyl)-2-thiazolyl]benzoic acid]",> 300
3,"O=C(O)c1ccc(-c2nc(-c3cccc(OC(F)(F)F)c3)cs2)cc1 [Example 63, 4-[4-(3-trifluoromethoxylphenyl)-2-thiazolyl]benzoic acid]",233 to 234
4,"O=C(O)c1ccc(-c2nc(-c3c(F)c(F)c(F)c(F)c3F)cs2)cc1 [Example 65, 4-[4-(2,3,4,5,6-pentafluorophenyl)-2-thiazolyl]benzoic acid]",273 to 274
5,"O=C(O)c1cccc(-c2nc(-c3ccc(C(F)(F)F)cc3)cs2)c1 [Example 67, 3-[4-(4-trifluoromethylphenyl)-2-thiazolyl]benzoic acid]",230 to 231
6,"O=C(O)c1cccc(-c2nc(-c3cccc(C(F)(F)F)c3)cs2)c1 [Example 68, 3-[4-(3-trifluoromethylphenyl)-2-thiazolyl]benzoic acid]",229 to 230
7,"O=C(O)c1cccc(-c2nc(-c3ccc(F)cc3F)cs2)c1 [Example 69, 3-[4-(2,4-difluorophenyl)-2-thiazolyl]benzoic acid]",255 to 256
8,"COc1ccc(-c2csc(-c3cccc(C(=O)O)c3)n2)cc1 [Example 70, 3-[4-(4-methoxyphenyl)-2-thiazolyl]benzoic acid]",236 to 238
9,"O=C(O)c1cccc(-c2nc(-c3ccc(F)c(F)c3)cs2)c1 [Example 71, 3-[4-(3,4-difluorophenyl)-2-thiazolyl]benzoic acid]",255 to 256
10,"CCOC(=O)c1cccc(-c2nc(-c3ccc(C)c(C)c3)cs2)c1 [Example 74, ethyl 3-[4-(3,4-dimethylphenyl)-2-thiazolyl]benzoate]",114 to 115
11,"COC(=O)c1ccc(-c2nc(-c3ccc(Br)cc3)cs2)cc1 [Example 75, methyl 4-[4-(4-bromophenyl)-2-thiazolyl]benzoate]",206 to 207
12,"CCOC(=O)c1cccc(-c2nc(-c3ccc(C)c(C)c3)cs2)c1 [Example 76, ethyl 3-[4-(3,4-dimethylphenyl)-2-thiazolyl]-benzoate]",147 to 148
13,"COC(=O)c1ccc(-c2nc(-c3cc(C)oc3C)cs2)cc1 [Example 77, methyl 4-[4-(2,5-dimethyl-3-furyl)-2-thiazolyl]benzoate]",103 to 105
14,"CCOC(=O)c1cccc(-c2nc(-c3cc(C)sc3C)cs2)c1 [Example 78, ethyl 3-[4-(2,5-dimethyl-3-thienyl)-2-thiazolyl]benzoate]",115 to 116
15,"COC(=O)c1ccc(-c2nc(-c3cc(C)sc3C)cs2)cc1 [Example 79, methyl 4-[4-(2,5-dimethyl-3-thienyl)-2-thiazolyl]benzoate]",109 to 110
16,"COC(=O)c1ccc(-c2nc(-c3cc(Cl)sc3Cl)cs2)cc1 [Example 80, methyl 4-[4-(2,5-dichloro-3-thienyl)-2-thiazolyl]benzoate]",149 to 150
17,"CCOC(=O)c1cccc(-c2nc(-c3cc(Cl)sc3Cl)cs2)c1 [Example 81, ethyl 3-[4-(2,5-dichloro-3-thienyl)-2-thiazolyl]benzoate]",125 to 126
18,"CCOC(=O)c1cccc(-c2nc(-c3ccc(OCC)cc3)cs2)c1 [Example 82, ethyl 3-[4-(4-ethoxyphenyl)-2-thiazolyl]benzoate]",108 to 110
19,"CCOc1ccc(-c2csc(-c3cccc(C(=O)OC)c3)n2)cc1 [Example 83, methyl 3-[4-(4-ethoxyphenyl)-2-thiazolyl]benzoate]",192 to 193
20,"CCOC(=O)c1cccc(-c2nc(-c3ccc(C(C)(C)C)cc3)cs2)c1 [Example 84, ethyl 3-[4-(4-t-butylphenyl)-2-thiazolyl]benzoate]",96 to 97
